Legend:
Carbonic anhydrase 1 = Carbonic anhydrase 1 (Homo sapiens, UniProt P00915)
Description: Inhibition of human recombinant carbonic anhydrase I (CA1)

Carbonic anhydrase 4 = biological target: T1, Carbonic anhydrase 4 (Bos taurus, UniProt Q95323)
T1 sequence (Q95323 whole entry): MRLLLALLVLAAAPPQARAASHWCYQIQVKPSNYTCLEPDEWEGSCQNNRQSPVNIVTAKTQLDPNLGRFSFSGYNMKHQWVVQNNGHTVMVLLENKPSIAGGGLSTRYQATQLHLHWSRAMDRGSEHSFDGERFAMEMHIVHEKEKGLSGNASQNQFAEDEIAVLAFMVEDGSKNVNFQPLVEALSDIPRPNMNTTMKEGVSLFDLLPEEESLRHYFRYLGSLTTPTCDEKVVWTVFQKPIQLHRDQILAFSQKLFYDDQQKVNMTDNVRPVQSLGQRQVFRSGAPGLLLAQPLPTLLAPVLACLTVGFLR
Description: Inhibition of bovine carbonic anhydrase IV (CA4) from bovine lung microsomes

Carbonic anhydrase 1, sequence (P00915 whole entry): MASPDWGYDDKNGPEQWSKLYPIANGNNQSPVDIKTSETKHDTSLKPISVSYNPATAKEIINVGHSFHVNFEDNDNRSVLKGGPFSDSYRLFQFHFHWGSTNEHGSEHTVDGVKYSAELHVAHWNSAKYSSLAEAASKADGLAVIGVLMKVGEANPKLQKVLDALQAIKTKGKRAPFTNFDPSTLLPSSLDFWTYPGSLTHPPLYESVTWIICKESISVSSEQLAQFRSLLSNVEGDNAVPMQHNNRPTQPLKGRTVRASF

Ki (Carbonic anhydrase 1) [nM]	Ki (Carbonic anhydrase 4) [nM]	SMILES
1850	840	NS(=O)(=O)c1ccc(NNC(=O)C(F)(F)C(F)(F)C(F)(F)C(F)(F)C(F)(F)C(F)(F)C(F)(F)C(F)(F)F)cc1
200000	47000	NS(=O)(=O)c1ccc(NS(=O)(=O)C(F)(F)F)c(Br)c1
1800	1500	NS(=O)(=O)c1ccccc1NC(=O)C(F)(F)C(F)(F)C(F)(F)C(F)(F)C(F)(F)C(F)(F)C(F)(F)C(F)(F)F
300	11	NS(=O)(=O)c1nnc(NC(=O)CCNS(=O)(=O)C(F)(F)C(F)(F)C(F)(F)C(F)(F)F)s1
900	12	Cn1nc(S(N)(=O)=O)s/c1=N/S(=O)(=O)c1ccc(NC(=O)C(F)(F)C(F)(F)C(F)(F)C(F)(F)C(F)(F)C(F)(F)C(F)(F)C(F)(F)F)cc1
138000	24500	NS(=O)(=O)c1ccc(CNS(=O)(=O)C(F)(F)F)cc1
81300	50000	NS(=O)(=O)c1ccc(CCNS(=O)(=O)C(F)(F)F)cc1
1870	865	NS(=O)(=O)c1ccc(NC(=O)c2c(F)c(F)c(F)c(F)c2F)c(Br)c1
8000	39	NS(=O)(=O)c1ccc(Nc2ccnc(NS(=O)(=O)C(F)(F)F)n2)cc1
1000	25	NS(=O)(=O)c1nnc(NS(=O)(=O)c2ccc(NS(=O)(=O)C(F)(F)F)cc2)s1
2480	10300	NS(=O)(=O)c1ccc(NS(=O)(=O)C(F)(F)C(F)(F)C(F)(F)C(F)(F)C(F)(F)C(F)(F)C(F)(F)C(F)(F)F)c(Cl)c1
24	7	NS(=O)(=O)c1nc2ccc(OCCOC(=O)C(F)(F)C(F)(F)C(F)(F)C(F)(F)C(F)(F)C(F)(F)C(F)(F)C(F)(F)F)cc2s1
6600	39	NS(=O)(=O)c1ccc(NS(=O)(=O)c2ccc(NC(=O)c3c(F)c(F)c(F)c(F)c3F)cc2)cc1
1200	410	NS(=O)(=O)c1ccc(COC(=O)c2c(F)c(F)c(F)c(F)c2F)cc1
13000	255	NS(=O)(=O)c1ccc(CNS(=O)(=O)C(F)(F)C(F)(F)C(F)(F)C(F)(F)F)cc1
1500	32	NS(=O)(=O)c1nnc(NS(=O)(=O)c2ccc(NC(=O)c3c(F)c(F)c(F)c(F)c3F)cc2)s1
50	7	NS(=O)(=O)c1nc2ccc(OCCOS(=O)(=O)C(F)(F)F)cc2s1
1400	550	NS(=O)(=O)c1ccc(NC(=O)C(F)(F)C(F)(F)C(F)(F)C(F)(F)C(F)(F)C(F)(F)C(F)(F)C(F)(F)F)c(F)c1
3000	30	NS(=O)(=O)c1cccc(NS(=O)(=O)c2ccc(NC(=O)C(F)(F)C(F)(F)C(F)(F)C(F)(F)C(F)(F)C(F)(F)C(F)(F)C(F)(F)F)cc2)c1
710	140	NS(=O)(=O)c1ccc(NS(=O)(=O)c2c(F)c(F)c(F)c(F)c2F)c(F)c1
19	6	NS(=O)(=O)c1nc2ccc(OCCOS(=O)(=O)C(F)(F)C(F)(F)C(F)(F)C(F)(F)F)cc2s1

Ki (Carbonic anhydrase 1) [nM]	Ki (Carbonic anhydrase 4) [nM]	SMILES
1900	420	NS(=O)(=O)c1cc(S(N)(=O)=O)c(NC(=O)c2c(F)c(F)c(F)c(F)c2F)c(Cl)c1Cl
300	103	NS(=O)(=O)c1ccc(CCOS(=O)(=O)c2c(F)c(F)c(F)c(F)c2F)cc1
49	7	NS(=O)(=O)c1nc2ccc(NS(=O)(=O)C(F)(F)C(F)(F)C(F)(F)C(F)(F)C(F)(F)C(F)(F)C(F)(F)C(F)(F)F)cc2s1
2500	620	NS(=O)(=O)c1ccc(NC(=O)C(F)(F)C(F)(F)C(F)(F)C(F)(F)C(F)(F)C(F)(F)C(F)(F)C(F)(F)F)c(Br)c1
59800	600	NS(=O)(=O)c1nnc(NS(=O)(=O)C(F)(F)F)s1
156000	60800	NS(=O)(=O)c1ccc(NNS(=O)(=O)C(F)(F)F)cc1
2300	600	NS(=O)(=O)c1ccc(NC(=O)C(F)(F)C(F)(F)C(F)(F)C(F)(F)C(F)(F)C(F)(F)C(F)(F)C(F)(F)F)c(Cl)c1
1600		Cn1nc(S(N)(=O)=O)s/c1=N/S(=O)(=O)c1ccc(NC(=O)c2c(F)c(F)c(F)c(F)c2F)cc1
750	54	NS(=O)(=O)c1cc(S(N)(=O)=O)c(NC(=O)c2c(F)c(F)c(F)c(F)c2F)cc1Cl
1760	675	NS(=O)(=O)c1ccc(NS(=O)(=O)c2c(F)c(F)c(F)c(F)c2F)c(I)c1
70	8	NS(=O)(=O)c1nc2ccc(NS(=O)(=O)C(F)(F)F)cc2s1
1500	550	NS(=O)(=O)c1ccc(NS(=O)(=O)c2c(F)c(F)c(F)c(F)c2F)c(Br)c1
330	18	Cn1nc(S(N)(=O)=O)s/c1=N/C(=O)C(F)(F)C(F)(F)C(F)(F)C(F)(F)C(F)(F)C(F)(F)C(F)(F)C(F)(F)F
20000	12000	NS(=O)(=O)c1ccc(CCOC(=O)C(F)(F)C(F)(F)C(F)(F)C(F)(F)C(F)(F)C(F)(F)C(F)(F)C(F)(F)F)cc1
4400	36	NS(=O)(=O)c1ccc(Nc2ccnc(NC(=O)C(F)(F)C(F)(F)C(F)(F)C(F)(F)C(F)(F)C(F)(F)C(F)(F)C(F)(F)F)n2)cc1
300	9	NS(=O)(=O)c1nnc(NC(=O)CCNS(=O)(=O)C(F)(F)C(F)(F)C(F)(F)C(F)(F)C(F)(F)C(F)(F)C(F)(F)C(F)(F)F)s1
380	14	Cn1nc(S(N)(=O)=O)sc1=NS(=O)(=O)C(F)(F)C(F)(F)C(F)(F)C(F)(F)C(F)(F)C(F)(F)C(F)(F)C(F)(F)F
25	6	NS(=O)(=O)c1nc2ccc(OS(=O)(=O)c3c(F)c(F)c(F)c(F)c3F)cc2s1
950	520	NS(=O)(=O)c1ccc(CCNC(=O)C(F)(F)C(F)(F)C(F)(F)C(F)(F)C(F)(F)C(F)(F)C(F)(F)C(F)(F)F)cc1
900	310	NS(=O)(=O)c1ccc(CCNC(=O)c2c(F)c(F)c(F)c(F)c2F)cc1
3600	31	NS(=O)(=O)c1ccc(NS(=O)(=O)c2ccc(NS(=O)(=O)C(F)(F)C(F)(F)C(F)(F)C(F)(F)F)cc2)cc1

Ki (Carbonic anhydrase 1) [nM]	Ki (Carbonic anhydrase 4) [nM]	SMILES
28	8	NS(=O)(=O)c1nc2ccc(OS(=O)(=O)C(F)(F)C(F)(F)C(F)(F)C(F)(F)C(F)(F)C(F)(F)C(F)(F)C(F)(F)F)cc2s1
8000	765	NS(=O)(=O)c1cc(S(N)(=O)=O)c(NS(=O)(=O)C(F)(F)C(F)(F)C(F)(F)C(F)(F)C(F)(F)C(F)(F)C(F)(F)C(F)(F)F)c(Cl)c1Cl
6000	30	NS(=O)(=O)c1ccc(Nc2ccnc(NS(=O)(=O)C(F)(F)C(F)(F)C(F)(F)C(F)(F)F)n2)cc1
180000	42000	NS(=O)(=O)c1ccc(NS(=O)(=O)C(F)(F)F)c(Cl)c1
3000	29	NS(=O)(=O)c1ccc(NS(=O)(=O)c2ccc(NS(=O)(=O)C(F)(F)C(F)(F)C(F)(F)C(F)(F)C(F)(F)C(F)(F)C(F)(F)C(F)(F)F)cc2)cc1
3000	680	NS(=O)(=O)c1ccc(NC(=O)C(F)(F)C(F)(F)C(F)(F)C(F)(F)C(F)(F)C(F)(F)C(F)(F)C(F)(F)F)c(I)c1
22000	12300	NS(=O)(=O)c1ccc(CCOS(=O)(=O)C(F)(F)C(F)(F)C(F)(F)C(F)(F)C(F)(F)C(F)(F)C(F)(F)C(F)(F)F)cc1
1070	200	NS(=O)(=O)c1ccc(NS(=O)(=O)C(F)(F)C(F)(F)C(F)(F)C(F)(F)F)c(F)c1
15000	10900	NS(=O)(=O)c1ccc(COS(=O)(=O)C(F)(F)C(F)(F)C(F)(F)C(F)(F)C(F)(F)C(F)(F)C(F)(F)C(F)(F)F)cc1
18400	590	NS(=O)(=O)c1cccc(NS(=O)(=O)C(F)(F)C(F)(F)C(F)(F)C(F)(F)F)c1
810	130	NS(=O)(=O)c1cc(S(N)(=O)=O)c(NC(=O)C(F)(F)C(F)(F)C(F)(F)C(F)(F)C(F)(F)C(F)(F)C(F)(F)C(F)(F)F)cc1Cl
12500	240	NS(=O)(=O)c1ccc(CCNS(=O)(=O)C(F)(F)C(F)(F)C(F)(F)C(F)(F)F)cc1
1500	142	NS(=O)(=O)c1cc(S(N)(=O)=O)c(NS(=O)(=O)c2c(F)c(F)c(F)c(F)c2F)c(Cl)c1Cl
120	8	NS(=O)(=O)c1nc2ccc(NC(=O)c3c(F)c(F)c(F)c(F)c3F)cc2s1
4000	40	NS(=O)(=O)c1ccc(NS(=O)(=O)c2ccc(NS(=O)(=O)C(F)(F)F)cc2)cc1
20300	900	NS(=O)(=O)c1ccc(NS(=O)(=O)C(F)(F)C(F)(F)C(F)(F)C(F)(F)F)c(Br)c1
7000	830	NS(=O)(=O)c1cc(S(N)(=O)=O)c(NC(=O)C(F)(F)C(F)(F)C(F)(F)C(F)(F)C(F)(F)C(F)(F)C(F)(F)C(F)(F)F)c(Cl)c1Cl
890	155	NS(=O)(=O)c1cc(S(N)(=O)=O)c(NS(=O)(=O)C(F)(F)C(F)(F)C(F)(F)C(F)(F)C(F)(F)C(F)(F)C(F)(F)C(F)(F)F)cc1Cl
2400	25	NS(=O)(=O)c1ccc(NS(=O)(=O)c2ccc(NC(=O)C(F)(F)C(F)(F)C(F)(F)C(F)(F)C(F)(F)C(F)(F)C(F)(F)C(F)(F)F)cc2)cc1
980	350	NS(=O)(=O)c1ccc(CNC(=O)c2c(F)c(F)c(F)c(F)c2F)cc1
1400	870	NS(=O)(=O)c1cccc(NS(=O)(=O)C(F)(F)C(F)(F)C(F)(F)C(F)(F)C(F)(F)C(F)(F)C(F)(F)C(F)(F)F)c1
